Laboratory results from patent US9290485B2, “N-((6-amino-pyridin-3-yl)methyl)-heteroaryl-carboxamides” (NOVARTIS AG, priority 2010, dated 2016).

Molecular target: human plasma kallikrein (Homo sapiens (Human), UniProt P03952)
Conditions: human plasma kallikrein 25 pM, substrate 0.5 uM, 1 hour pre-incubation at room temperature, read at t=60 min

Chain of human plasma kallikrein (P03952 whole entry, looked up): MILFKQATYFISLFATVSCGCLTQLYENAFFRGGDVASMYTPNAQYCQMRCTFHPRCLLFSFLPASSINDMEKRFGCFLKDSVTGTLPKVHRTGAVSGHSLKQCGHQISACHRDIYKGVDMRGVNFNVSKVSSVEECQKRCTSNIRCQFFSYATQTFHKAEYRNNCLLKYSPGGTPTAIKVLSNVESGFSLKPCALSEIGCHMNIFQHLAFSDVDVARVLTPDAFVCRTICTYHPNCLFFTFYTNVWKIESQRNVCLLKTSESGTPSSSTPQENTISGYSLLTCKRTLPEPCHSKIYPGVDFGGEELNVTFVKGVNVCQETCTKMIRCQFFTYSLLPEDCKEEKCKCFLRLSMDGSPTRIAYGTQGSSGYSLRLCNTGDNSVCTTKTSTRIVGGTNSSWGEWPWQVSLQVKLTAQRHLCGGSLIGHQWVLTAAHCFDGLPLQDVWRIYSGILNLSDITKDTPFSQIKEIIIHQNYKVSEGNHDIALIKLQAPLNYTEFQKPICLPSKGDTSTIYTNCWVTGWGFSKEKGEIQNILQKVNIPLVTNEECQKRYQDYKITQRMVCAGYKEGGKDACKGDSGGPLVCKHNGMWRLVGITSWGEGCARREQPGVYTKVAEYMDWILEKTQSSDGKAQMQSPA
Chain of human plasma kallikrein (P03952 whole entry partner, looked up): as the sequence (P03952 whole entry, looked up) above

Row | Structure (SMILES) | IC50
1 | Cc1cc(N)nc(C)c1CNC(=O)c1cn(Cc2ccccc2)c2ccccc12 [Example 108, N-((6-amino-2,4-dimethylpyridin-3-yl)methyl)-1-benzyl-1H-indole-3-carboxamide] | 798 nM
2 | Cc1cc(N)nc(C)c1CNC(=O)c1cc(C)n(Cc2ccccc2)c1C [Example 109, N-((6-amino-2,4-dimethylpyridin-3-yl)methyl)-1-benzyl-2,5-dimethyl-1H-pyrrole-3-carboxamide] | 1300 nM
3 | Cc1cc(N)nc(C)c1CNC(=O)c1cnn(Cc2ccc(CN3CCOCC3)cc2)c1 [Example 110, N-((6-amino-2,4-dimethylpyridin-3-yl)methyl)-1-(4-(morpholinomethyl)benzyl)-1H-pyrazole-4-carboxamide] | 249 nM
4 | Cc1cc(N)nc(C)c1CNC(=O)c1cnn(Cc2ccc(C(=O)NC3CCS(=O)(=O)C3)cc2)c1 (centres unmarked) [Example 111, 1-[4-(1,1-Dioxo-tetrahydro-1lambda*6*-thiophen-3-ylcarbamoyl)-benzyl]-1H-pyrazole-4-carboxylic acid (6-amino-2,4-dimethyl-pyridin-3-ylmethyl)-amide] | 2100 nM
5 | Cc1cc(N)nc(C)c1CNC(=O)c1cnn(Cc2ccc(NC(=O)NC3CC3)cc2)c1 [Example 112, N-((6-amino-2,4-dimethylpyridin-3-yl)methyl)-1-(4-(3-cyclopropylureido)benzyl)-1H-pyrazole-4-carboxamide] | 229 nM
6 | Cc1cc(N)nc(C)c1CNC(=O)c1n[nH]c(Cc2ccccc2)n1 [Example 113, N-((6-amino-2,4-dimethylpyridin-3-yl)methyl)-5-benzyl-1H-1,2,4-triazole-3-carboxamide] | 5800 nM
7 | Cc1cc(N)nc(C)c1CNC(=O)c1cnn(Cc2ccc(-c3ccncc3)cc2)c1 [Example 114, N-((6-amino-2,4-dimethylpyridin-3-yl)methyl)-1-(4-(pyridin-4-yl)benzyl)-1H-pyrazole-4-carboxamide] | 30 nM
8 | Cc1cc(N)nc(C)c1CNC(=O)c1cnn(Cc2cccc(-c3ccccc3)c2)c1 [Example 115, N-((6-amino-2,4-dimethylpyridin-3-yl)methyl)-1-(biphenyl-3-ylmethyl)-1H-pyrazole-4-carboxamide] | 3.3 nM
9 | Cc1cc(N)nc(C)c1CNC(=O)c1cnn(Cc2cccc(S(=O)(=O)N3CCOCC3)c2)c1 [Example 116, N-((6-amino-2,4-dimethylpyridin-3-yl)methyl)-1-(3-(morpholinosulfonyl)benzyl)-1H-pyrazole-4-carboxamide] | 197 nM
10 | Cc1cc(N)nc(C)c1CNC(=O)c1cnn(Cc2cccc(C(=O)Nc3ccccc3)c2)c1 [Example 117, N-((6-amino-2,4-dimethylpyridin-3-yl)methyl)-1-(3-(phenylcarbamoyl)benzyl)-1H-pyrazole-4-carboxamide] | 152 nM
11 | Cc1cc(N)nc(C)c1CNC(=O)c1cnn(Cc2ccc(CN3CCCC3)cc2)c1 [Example 118, N-((6-amino-2,4-dimethylpyridin-3-yl)methyl)-1-(4-(pyrrolidin-1-ylmethyl)benzyl)-1H-pyrazole-4-carboxamide] | 183 nM
12 | Cc1cc(N)nc(C)c1CNC(=O)c1cnn(Cc2cccc(C(=O)N3CCCCC3)c2)c1 [Example 119, N-((6-amino-2,4-dimethylpyridin-3-yl)methyl)-1-(3-(piperidine-1-carbonyl)benzyl)-1H-pyrazole-4-carboxamide] | 289 nM
13 | Cc1cc(N)nc(C)c1CNC(=O)c1cnn(Cc2ccc(C(=O)N3CCOCC3)cc2)c1 [Example 121, N-((6-amino-2,4-dimethylpyridin-3-yl)methyl)-1-(4-(morpholine-4-carbonyl)benzyl)-1H-pyrazole-4-carboxamide] | 369 nM
14 | Cc1cc(N)nc(C)c1CNC(=O)c1cnn(Cc2ccc(C(=O)Nc3ccn(C)n3)cc2)c1 [Example 122, N-((6-amino-2,4-dimethylpyridin-3-yl)methyl)-1-(4-(1-methyl-1H-pyrazol-3-ylcarbamoyl)benzyl)-1H-pyrazole-4-carboxamide] | 752 nM
15 | Cc1cc(N)nc(C)c1CNC(=O)c1n[nH]c([C@@H](N)c2ccccc2)n1 [Example 123, (S)-5-(amino(phenyl)methyl)-N-((6-amino-2,4-dimethylpyridin-3-yl)methyl)-1H-1,2,4-triazole-3-carboxamide] | 15800 nM
16 | Cc1cc(N)nc(C)c1CNC(=O)c1nc(Cc2ccc(-c3ccccc3)cc2)n[nH]1 [Example 124, N-((6-amino-2,4-dimethylpyridin-3-yl)methyl)-3-(biphenyl-4-ylmethyl)-1H-1,2,4-triazole-5-carboxamide] | 71 nM
17 | Cc1cc(N)nc(C)c1CNC(=O)c1nc(Cc2ccc(Oc3ccccc3)cc2)n[nH]1 [Example 125, N-((6-amino-2,4-dimethylpyridin-3-yl)methyl)-3-(4-phenoxybenzyl)-1H-1,2,4-triazole-5-carboxamide] | 36 nM
18 | Cc1cc(N)nc(C)c1CNC(=O)c1cnn(Cc2ccc(S(=O)(=O)N(C)C)cc2)c1 [Example 126, N-((6-amino-2,4-dimethylpyridin-3-yl)methyl)-1-(4-(N,N-dimethylsulfamoyl)benzyl)-1H-pyrazole-4-carboxamide] | 670 nM

Row | Structure (SMILES) | IC50
19 | Cc1cc(N)nc(C)c1CNC(=O)c1ccn(S(=O)(=O)c2ccc(-c3ccccc3)cc2)c1 [Example 127, N-((6-amino-2,4-dimethylpyridin-3-yl)methyl)-1-(biphenyl-4-ylsulfonyl)-1H-pyrrole-3-carboxamide] | 16 nM
20 | Cc1cc(N)nc(C)c1CNC(=O)c1ccn(S(=O)(=O)c2ccc(Cl)s2)c1 [Example 128, N-((6-amino-2,4-dimethylpyridin-3-yl)methyl)-1-(5-chlorothiophen-2-ylsulfonyl)-1H-pyrrole-3-carboxamide] | 301 nM
21 | COc1cccc(S(=O)(=O)n2ccc(C(=O)NCc3c(C)cc(N)nc3C)c2)c1 [Example 129, N-((6-amino-2,4-dimethylpyridin-3-yl)methyl)-1-(3-methoxyphenylsulfonyl)-1H-pyrrole-3-carboxamide] | 244 nM
22 | Cc1cc(N)nc(C)c1CNC(=O)c1ccn(S(=O)(=O)c2ccc3c(c2)N(C)CCO3)c1 [Example 130, N-((6-amino-2,4-dimethylpyridin-3-yl)methyl)-1-(4-methyl-3,4-dihydro-2H-benzo[b][1,4]oxazin-6-ylsulfonyl)-1H-pyrrole-3-carboxamide] | 67 nM
23 | Cc1cc(N)nc(C)c1CNC(=O)c1ccn(S(=O)(=O)c2ccc3c(ccn3C)c2)c1 [Example 131, N-((6-amino-2,4-dimethylpyridin-3-yl)methyl)-1-(1-methyl-1H-indol-5-ylsulfonyl)-1H-pyrrole-3-carboxamide] | 9 nM
24 | Cc1cc(N)nc(C)c1CNC(=O)c1ccn(S(=O)(=O)c2cccc(-c3ncccn3)c2)c1 [Example 132, N-((6-amino-2,4-dimethylpyridin-3-yl)methyl)-1-(3-(pyrimidin-2-yl)phenylsulfonyl)-1H-pyrrole-3-carboxamide] | 71 nM
25 | Cc1cc(C)n(-c2ccc(S(=O)(=O)n3ccc(C(=O)NCc4c(C)cc(N)nc4C)c3)cc2)n1 [Example 133, N-((6-amino-2,4-dimethylpyridin-3-yl)methyl)-1-(4-(3,5-dimethyl-1H-pyrazol-1-yl)phenylsulfonyl)-1H-pyrrole-3-carboxamide] | 196 nM
26 | Cc1cc(N)nc(C)c1CNC(=O)c1cnn(Cc2ccc(OCC(=O)O)cc2)c1 [Example 134, 2-(4-((4-((6-amino-2,4-dimethylpyridin-3-yl)methylcarbamoyl)-1H-pyrazol-1-yl)methyl)phenoxy)acetic acid] | 1100 nM
27 | Cc1cc(N)nc(C)c1CNC(=O)c1cnn(Cc2ccc(OCC#N)cc2)c1 [Example 135, N-((6-amino-2,4-dimethylpyridin-3-yl)methyl)-1-(4-(cyanomethoxy)benzyl)-1H-pyrazole-4-carboxamide] | 89 nM
28 | Cc1nc(N)cc(OCc2ncco2)c1CNC(=O)c1cn(Cc2ccccc2)nn1 [Example 137, N-((6-amino-2-methyl-4-(oxazol-2-ylmethoxy)pyridin-3-yl)methyl)-1-benzyl-1H-1,2,3-triazole-4-carboxamide] | 127 nM
29 | Cc1cc(N)ncc1CNC(=O)c1cnn(Cc2ccccc2)c1 [Example 138, N-((6-amino-4-methylpyridin-3-yl)methyl)-1-benzyl-1H-pyrazole-4-carboxamide] | 62700 nM
30 | Cc1cc(N)nc(C)c1CNC(=O)c1cnn(Cc2ccc(Cn3ccc(=O)[nH]3)cc2)c1 [Example 139, N-((6-amino-2,4-dimethylpyridin-3-yl)methyl)-1-(4-((3-oxo-2,3-dihydro-1H-pyrazol-1-yl)methyl)benzyl)-1H-pyrazole-4-carboxamide] | 4.9 nM
31 | Cc1cc(N)nc(C)c1CNC(=O)c1cnn(Cc2ccc(Cn3ccnn3)cc2)c1 [Example 140, 1-(4-((1H-1,2,3-triazol-1-yl)methyl)benzyl)-N-((6-amino-2,4-dimethylpyridin-3-yl)methyl)-1H-pyrazole-4-carboxamide] | 4.6 nM
32 | Cc1cc(N)nc(C)c1CNC(=O)c1cnn(Cc2ccc(Cn3c(C)cc(=O)n3C)cc2)c1 [Example 141, N-((6-amino-2,4-dimethylpyridin-3-yl)methyl)-1-(4-((2,5-dimethyl-3-oxo-2,3-dihydro-1H-pyrazol-1-yl)methyl)benzyl)-1H-pyrazole-4-carboxamide] | 1.2 nM
33 | Cc1cc(N)nc(C)c1CNC(=O)c1cnn(Cc2ccc(Cn3ccccc3=O)cc2)c1 [Example 142, N-((6-amino-2,4-dimethylpyridin-3-yl)methyl)-1-(4-((2-oxopyridin-1(2H)-yl)methyl)benzyl)-1H-pyrazole-4-carboxamide] | 0.0224 nM
34 | Cc1cc(N)nc(C)c1CNC(=O)c1cnn(Cc2ccc(CN3CCCC3=O)cc2)c1 [Example 143, N-((6-amino-2,4-dimethylpyridin-3-yl)methyl)-1-(4-((2-oxopyrrolidin-1-yl)methyl)benzyl)-1H-pyrazole-4-carboxamide] | 2.6 nM
35 | Cc1nc(N)cc(Cl)c1CNC(=O)c1cnn(Cc2ccccc2)c1 [Example 144, N-((6-amino-4-chloro-2-methylpyridin-3-yl)methyl]-1-benzyl-1H-pyrazole-4-carboxamide] | 42400 nM
